Test results: patent US7700587B2, “Haloperidol analogs” (Florida A&M University, priority 2004, dated 2010)

Key:
Swiss male mice = assay: Apomorphine induced climbing-stereotypy; format: in vivo; conditions: for inhibition of apomorphine induced climbing (dopamine receptor antagonist in vivo): intraperitoneal, apomorphine challenge
Male SD rats = assay: Bar test for catalepsy; format: in vivo; conditions: for statistical comparison of effects in catalepsy bar test (t-test, p<0.05): all four doses; for catalepsy (EPS) in bar test: subcutaneous, at the doses used
Description: Bar test for catalepsy: A modified bar test by Needham et al, supra was used. […] Catalepsy severity was assessed immediately at various time points (15, 30, 45, 60, and 90 min) post injection, by scoring how long the rat maintained both forepaws motionless on a horizontal metal bar (1.1 cm in diameter, 10 cm above the bench top in a box). A score of 1 was given for every 5 seconds (2 min. maximum) the animal remained on the bar. Mean scores from 5 animals per time point were recorded for catalepsy and plotted in FIG. 2.
Statistical analysis: The student t-test was used to compare the three compounds used in the animal behavioral tests. Results were considered significant at p<0.05.

O=C(CCCN1CCC(O)(c2ccc(Cl)cc2)CC1)c1ccc(F)cc1 [Haloperidol (1), 4-[4-(4-chlorophenyl)-4-hydroxy-1-piperidinyl]-1-(4-fluorophenyl)-1-butanone, reference compound]
inhibition of apomorphine induced climbing (dopamine receptor antagonist in vivo) (Swiss male mice): acting as a dopamine receptor antagonist

8-chloro-1-(4-methyl-1-piperazinyl)-5H-dibenzo[b,e]-[1,4]-diazepine [Clozapine (3), reference compound]
inhibition of apomorphine induced climbing (dopamine receptor antagonist in vivo) (Swiss male mice): acting as a dopamine receptor antagonist

O=C(CCCN1CCC(O)(c2ccc(Cl)cc2)C1)c1ccc(F)cc1 (racemic) [Analog [A] (2), 4-[3-hydroxy-3-(4′-chlorophenyl)pyrrolidinyl]-4″-fluorobutyrophenone]
statistical comparison of effects in catalepsy bar test (t-test, p<0.05) (Male SD rats): statistically similar to clozapine's
statistical comparison of effects in catalepsy bar test (t-test, p<0.05) (Male SD rats; listed as the analog): significantly different from compound 1 but non significantly different from compound 3
catalepsy (EPS) in bar test (Male SD rats; listed as 2): no catalepsy
catalepsy (EPS) in bar test (Male SD rats; listed as drawing 7): much less severe EPS (manifested as catalepsy in animal models) than haloperidol
statistical comparison of effects in climbing test (t-test, p<0.05) (Swiss male mice; all four doses): significantly different from compound 1 but non significantly different from compound 3
inhibition of apomorphine induced climbing (dopamine receptor antagonist in vivo) (Swiss male mice; listed as 2): could inhibit apormophine induced climbing in mice
inhibition of apomorphine induced climbing (dopamine receptor antagonist in vivo) (Swiss male mice; listed as drawing 7): act as antidopaminergics in vivo
